Series [1] deals with H5N1 avian influenza viruses CV strain. Description: animal or person. It is filed as in vivo, H5N1 avian influenza virus. To be noted: for IC50: Influenza A virus.
Series [2] deals with H5N1 avian influenza virus, WV strain. To be noted: in vivo, po.
The subject of another series is embryonated hen eggs. To be noted: in vivo.
A further series deals with influenza virus. To be noted: in vivo, po.
[3] abbreviates: H5N1, read-out: IC50 against H5N1 avian influenza virus.

Converted amounts (≈) assume the structure as drawn. Counter-ions that a name gives are not always drawn. Like-named read-outs stand apart in the source and are kept apart here. A value given as a limit tells only on which side of the number the result lay.

Regarding `CCOC(=O)C1=C[C@@H](OC(CC)CC)[C@H](NC(C)=O)[C@@H](N)C1` [TAMIFLU®, oseltamivir phosphate, reference compound], the IC50 in series [1] (H5N1, read-out: IC50 (drug concentration required to survive 50% embryo)) turned out to be 25.1 mg/mL; in series [1] (setting [3]), 19.4 mg/mL. For the same compound, the “protection rate in mice” value in series [2] was found to be 60%.

`NCCS` [TG21, Cysteamine]: the IC50 in series [1] (setting [3]) came to 17.5 mg/mL (≈ 227 mM). For the same compound, in series [1] (in vivo), the “IC50 against H5N1 avian influenza virus” value is reported as 16.1 mg/mL (≈ 209 mM). In addition, in the series with embryonated hen eggs (chicken (hen) embryo), the “LD50 of TG21 to embryonated hen eggs” value came out at 32.1 mg/mL and the “dose below which no side-effect was found” value is “below 12.5 mg/mL”. Besides, the “toxicity at high doses” value in the series with embryonated hen eggs is listed as “some toxicity was detected”.

Consider `NCCS` [cysteamine hydrochloride], for which the “time until symptoms associated with the influenza infection had disappeared” value in the series on influenza virus is at most 24 h.

Source of the values: patent US9283198B2, “Materials and methods for treating viral infections” (priority 2005, dated 2016).
